Results as given in BindingDB's records for doi:10.1016/0960-894X(95)00199-4 (1995).
pIC50: −log10 of the molar value.

What was measured:
[1] = Compound was evaluated for the inhibition of platelet aggregation, assessed turbidimetrically in citreated human platelet rich plasma (PRP)
Thromboxane A2 receptor = target: T1, Thromboxane A2 receptor (Homo sapiens, UniProt P21731); experiment: Compound was evaluated for the inhibition of platelet aggregation, assessed turbidimetrically in citreated human platelet rich plasma (PRP)
T1 sequence (P21731 whole entry): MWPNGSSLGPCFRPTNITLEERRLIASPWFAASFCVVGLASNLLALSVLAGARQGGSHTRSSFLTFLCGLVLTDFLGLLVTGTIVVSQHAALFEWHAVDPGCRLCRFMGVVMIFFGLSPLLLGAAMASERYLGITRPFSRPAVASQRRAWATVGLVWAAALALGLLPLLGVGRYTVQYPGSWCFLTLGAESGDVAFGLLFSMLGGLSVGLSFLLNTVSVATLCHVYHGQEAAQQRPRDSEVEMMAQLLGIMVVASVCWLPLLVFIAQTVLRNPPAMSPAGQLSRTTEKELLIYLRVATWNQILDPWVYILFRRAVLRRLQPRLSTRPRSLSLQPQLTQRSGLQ

pIC50 [1]	pIC50 (Thromboxane A2 receptor)	SMILES
5.72	–	O=C(O)CC/C=C\CC1=CCC[C@@H]1NS(=O)(=O)c1ccc(Cl)cc1
5.96	–	O=C(O)CCC/C=C\C[C@H]1[C@H](F)CC[C@@H]1NS(=O)(=O)c1ccccc1
5.70	–	O=C(O)CC/C=C\C[C@H]1[C@H](F)CC[C@@H]1NS(=O)(=O)c1ccccc1
5.66	–	O=C(O)CC/C=C\CC1=CCC[C@@H]1NS(=O)(=O)c1ccccc1
5.89	–	O=C(O)CC/C=C\CC1=CCC[C@@H]1NS(=O)(=O)c1ccc(F)cc1
5.64	–	O=C(O)CCC/C=C\CC1=CCC[C@@H]1NS(=O)(=O)c1ccccc1
5.70	–	O=C(O)COCCCCC1=CCC[C@@H]1NS(=O)(=O)c1ccccc1
5.77	–	O=C(O)CCC/C=C\CC1=CCC[C@@H]1CNS(=O)(=O)c1ccc(F)cc1
5.72	–	O=C(O)CC/C=C\CC1=CCC[C@@H]1NS(=O)(=O)c1ccc(Cl)c(Cl)c1
6.21	–	O=C(O)CCCCCCC1=CCC[C@@H]1NS(=O)(=O)c1ccc(F)cc1
6.60	–	Cc1ccc(S(=O)(=O)N[C@H]2CCC=C2C/C=C\CCCC(=O)O)cc1
5.72	–	O=C(O)CCC/C=C\CC1=CCC[C@@H]1NS(=O)(=O)c1ccc2ccccc2c1
5.70	–	O=C(O)CCC/C=C\CC1=CCC[C@@H]1NS(=O)(=O)c1cccc2cccnc12
6.17	–	O=C(O)CCC/C=C\CC1=CCC[C@@H]1NS(=O)(=O)c1ccccc1[N+](=O)[O-]
6.22	–	O=C(O)CC/C=C\CC1=CCC[C@@H]1NS(=O)(=O)c1ccccc1[N+](=O)[O-]
6.22	–	O=C(O)CC/C=C\CC1=CCC[C@@H]1CNS(=O)(=O)c1ccc(F)cc1
4.70	–	O=C(O)CC/C=C\CC1=CCC[C@@H]1NS(=O)(=O)c1ccc(F)cc1F
5.36	–	O=C(O)CCC/C=C\CC1=CCC[C@@H]1NS(=O)(=O)c1ccc(F)cc1
5.74	–	Cc1ccc(S(=O)(=O)N[C@H]2CCC=C2C/C=C\CCC(=O)O)cc1

The next lines start with the molecule.

SMILES	pIC50 [1]	pIC50 (Thromboxane A2 receptor)
O=C(O)CCC/C=C\C[C@H]1[C@H](F)CC[C@@H]1NS(=O)(=O)c1ccc(F)cc1	–	6.27
O=C(O)COCCCCC1=CCC[C@@H]1NS(=O)(=O)c1ccc(F)cc1F	5.74	–
Cc1ccc(S(=O)(=O)NC[C@H]2CC[C@@H](F)[C@@H]2C/C=C\CCC(=O)O)cc1	5.72	–
O=C(O)CCC/C=C\C[C@H]1[C@H](F)CC[C@@H]1NS(=O)(=O)c1ccc(Cl)c(Cl)c1	6.20	–
O=C(O)CC/C=C\C[C@H]1[C@H](F)CC[C@@H]1NS(=O)(=O)c1ccc(Cl)c(Cl)c1	5.77	–
O=C(O)CC/C=C\C[C@@H]1[C@@H](CNS(=O)(=O)c2ccc(F)cc2)CC[C@H]1F	–	5.72
O=C(O)COCCCCC1=CCC[C@@H]1NS(=O)(=O)c1ccccc1[N+](=O)[O-]	5.72	–
O=C(O)CC/C=C\C[C@@H]1[C@@H](CNS(=O)(=O)c2ccc(F)cc2)CC[C@@H]1F	6.19	–
O=C(O)CCC/C=C\C[C@H]1[C@H](F)CC[C@@H]1NS(=O)(=O)c1ccc(Cl)cc1	7.15	–
O=C(O)CCC/C=C\C[C@@H]1[C@@H](CNS(=O)(=O)c2ccc(F)cc2)CC[C@H]1F	5.70	–
O=C(O)CCCCCC[C@@H]1[C@@H](CNS(=O)(=O)c2ccc(F)cc2)CC[C@H]1F	5.22	–
O=C(O)COCCCC[C@H]1[C@H](F)CC[C@@H]1NS(=O)(=O)c1ccccc1[N+](=O)[O-]	5.26	–
O=C(O)CC/C=C/C[C@H]1[C@H](F)CC[C@@H]1NS(=O)(=O)c1ccc(F)cc1F	5.80	–
O=C(O)CC/C=C\C[C@@H]1[C@@H](CNS(=O)(=O)c2ccc(Cl)cc2)CC[C@H]1F	5.74	–
O=C(O)CCCCC[C@@H]1[C@@H](CNS(=O)(=O)c2ccc(F)cc2)CC[C@H]1F	5.33	–
O=C(O)CC/C=C\C[C@H]1[C@H](F)CC[C@@H]1NS(=O)(=O)c1ccccc1[N+](=O)[O-]	6.25	–
O=C(O)CC/C=C\C[C@H]1[C@H](F)CC[C@@H]1NS(=O)(=O)c1ccc(Cl)cc1	6.68	–

SMILES	pIC50 [1]	pIC50 (Thromboxane A2 receptor)
O=C(O)CCC/C=C\C[C@H]1[C@H](F)CC[C@@H]1NS(=O)(=O)C1=C2N=CC=CC2CC=C1 (stereo partly drawn)	–	5.70
O=C(O)COCCCC[C@@H]1[C@@H](CNS(=O)(=O)c2ccc(F)cc2)CC[C@H]1F	6.19	–
O=C(O)COCCCCC1=CCC[C@@H]1NS(=O)(=O)c1ccc(Cl)c(Cl)c1	5.72	–
O=C(O)COCCCC[C@H]1[C@H](F)CC[C@@H]1NS(=O)(=O)c1ccccc1	5.77	–
O=C(O)COCCCC[C@H]1[C@H](F)CC[C@@H]1NS(=O)(=O)c1ccc(F)cc1	5.74	–
O=C(O)CC/C=C\C[C@H]1[C@H](F)CC[C@@H]1NS(=O)(=O)c1ccc(F)cc1	6.12	–
O=C(O)COCCCCC1=CCC[C@@H]1NS(=O)(=O)c1ccc(F)cc1	5.70	–
Cc1ccc(S(=O)(=O)N[C@H]2CC[C@@H](F)[C@@H]2CCCCOCC(=O)O)cc1	5.74	–
O=C(O)CCCCCC[C@H]1[C@H](F)CC[C@@H]1NS(=O)(=O)c1ccc(F)cc1	5.62	–
O=C(O)CCC/C=C\C[C@H]1[C@H](F)CC[C@@H]1NS(=O)(=O)c1ccccc1[N+](=O)[O-]	5.74	–
Cc1ccc(S(=O)(=O)N[C@H]2CCC=C2CCCCOCC(=O)O)cc1	5.72	–
O=C(O)COCCCC[C@H]1[C@H](F)CC[C@@H]1NS(=O)(=O)c1ccc(F)cc1F	5.74	–
O=C(O)CCC/C=C\C[C@H]1[C@H](F)CC[C@@H]1NS(=O)(=O)c1ccc2ccccc2c1	6.70	–
O=C(O)CCC/C=C\C[C@H]1[C@H](F)CC[C@@H]1NS(=O)(=O)c1ccc(F)cc1F	6.70	–
O=C(O)COCCCCC1=CCC[C@@H]1CNS(=O)(=O)c1ccc(F)cc1	6.70	–
Cc1ccc(S(=O)(=O)N[C@H]2CC[C@@H](F)[C@@H]2C/C=C\CCCC(=O)O)cc1	6.59	–
Cc1ccc(S(=O)(=O)N[C@H]2CC[C@@H](F)[C@@H]2C/C=C\CCC(=O)O)cc1	5.72	–
